# Measured values reported in ChEMBL document CHEMBL1201862, “PubChem BioAssay data set” (2004).
# Active and inactive are the calls of the source.
# Experiments:
# [1] = target: Mu-type opioid receptor (Homo sapiens, UniProt P35372); assay: HTS Image-Based Screen for Agonists of the MOR Receptor. [Related pubchem assays (depositor defined):AID1777, AID1785, AID1786, AID2133]; assay type: functional;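 note: imaging of beta-arrestin GFP recruitment into spots after receptor activation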
# [2] = target: Delta-type opioid receptor (Homo sapiens, UniProt P41143); assay: HTS Image-Based Screen for Agonists of the DOR Receptor. [Related pubchem assays (depositor defined):AID1777, AID1786, AID2133]; assay type: functional
# [3] = target: G-protein coupled receptor 55 (Homo sapiens, UniProt Q9Y2T6); assay: GPR55 antagonists blocking LPI-driven arrestin recruitment, primary screen, imaging, U2OS, beta-arrestin-GFP, LPI agonist (AID 2013); assay type: functional;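 note: antagonist potency measured as reduced agonist-driven arrestin aggregation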
# [4] = target: Kappa-type opioid receptor (Homo sapiens, UniProt P41145); assay type: functional
# [5] = cytotoxicity toward NIH3T3 fibroblasts, dose response, counter-screen, cell-based, ATP luminescence, mouse fibroblasts (AID 2010); assay type: functional;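 note: cells exposed to compound for about 90 hours before reading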
# [6] = target: T1, Sphingosine 1-phosphate receptor 4 (Homo sapiens, UniProt O95977); assay: Late stage fluorescence dose response cell-based screening assay for antagonists of the Sphingosine 1-Phosphate Receptor 4 (S1P4). [Related pubchem assays: 1524 (Confirmation screen (S1P4 antagonists).), 1510 (Primary screen (S1P4 antagonists).), 1853 (Summary AID (S1P4 antagonists).), 1692 (Dose response screen (S1P4 antagonists).)]; assay type: functional
# T1 sequence (O95977 whole entry): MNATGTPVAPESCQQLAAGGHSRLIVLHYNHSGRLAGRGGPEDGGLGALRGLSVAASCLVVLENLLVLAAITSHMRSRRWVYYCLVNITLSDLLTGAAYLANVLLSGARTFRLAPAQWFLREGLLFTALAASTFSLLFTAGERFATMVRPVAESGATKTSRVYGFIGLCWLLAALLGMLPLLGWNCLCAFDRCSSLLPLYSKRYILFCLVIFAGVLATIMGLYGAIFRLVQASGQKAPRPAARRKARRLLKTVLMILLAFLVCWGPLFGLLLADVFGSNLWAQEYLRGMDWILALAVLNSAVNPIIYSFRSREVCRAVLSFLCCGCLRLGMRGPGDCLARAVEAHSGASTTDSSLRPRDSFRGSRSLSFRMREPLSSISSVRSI
# [7] = target: Sphingosine 1-phosphate receptor 1 (Homo sapiens, UniProt P21453); assay type: functional;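 note: Tango beta-arrestin reporter U2OS cells stimulated with S1P near its EC80; inhibitor potency meaning antagonism of receptor activation by the natural agonist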
# [8] = target: T2, Protein RecA (Mycobacterium tuberculosis, UniProt P9WHJ3); assay: Fluorescence Cell-Free Homogeneous Dose Retest to Identify Inhibitors of RecA-Intein Splicing Activity. [Related pubchem assays (depositor defined):AID2097, AID2223, AID489010, AID492950]; assay type: functional
# T2 sequence (P9WHJ3 whole entry): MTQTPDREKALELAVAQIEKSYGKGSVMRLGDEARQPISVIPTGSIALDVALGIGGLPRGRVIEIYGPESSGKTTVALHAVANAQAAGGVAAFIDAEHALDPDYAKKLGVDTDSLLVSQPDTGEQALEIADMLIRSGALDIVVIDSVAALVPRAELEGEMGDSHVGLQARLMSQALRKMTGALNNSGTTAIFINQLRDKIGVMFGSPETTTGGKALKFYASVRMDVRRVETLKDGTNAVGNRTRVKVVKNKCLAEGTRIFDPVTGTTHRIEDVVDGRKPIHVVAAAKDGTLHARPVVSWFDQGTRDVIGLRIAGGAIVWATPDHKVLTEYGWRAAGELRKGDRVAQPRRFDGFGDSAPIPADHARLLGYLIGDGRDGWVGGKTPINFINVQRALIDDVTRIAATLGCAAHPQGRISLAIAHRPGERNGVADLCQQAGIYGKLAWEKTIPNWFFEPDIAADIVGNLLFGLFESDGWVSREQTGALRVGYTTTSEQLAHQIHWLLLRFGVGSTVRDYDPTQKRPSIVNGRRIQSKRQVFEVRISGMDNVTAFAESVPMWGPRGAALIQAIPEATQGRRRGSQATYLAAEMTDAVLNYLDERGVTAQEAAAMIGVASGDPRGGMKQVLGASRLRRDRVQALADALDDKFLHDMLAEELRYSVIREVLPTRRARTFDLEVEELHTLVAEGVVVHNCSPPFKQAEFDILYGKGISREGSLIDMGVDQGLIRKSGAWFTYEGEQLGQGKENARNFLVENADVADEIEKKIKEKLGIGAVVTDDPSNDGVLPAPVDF
# [9] = A549 cell cytotoxicity, dose response, cytotoxicity control, plate reader, cherry-pick, antagonist series (AID 743412); assay type: functional, cell-based
# [10] = HepG2 cell cytotoxicity, dose response, cytotoxicity control, plate reader, cherry-pick, antagonist series (AID 743416); assay type: functional, cell-based
# [11] = LGR2 antagonists, dose response, cell-based, HEK293, CRE-luciferase reporter, cherry pick, set 2 (AID 743343); assay type: functional;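 note: transfected cells were stimulated with diluted bursicon conditioned medium after compound addition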
# [12] = C. albicans growth with fluconazole, confirmation, fluorescence, retest (AID 2467); assay type: functional, cell-based
# [13] = cells; assay type: functional, cell-based
# [14] = Counterscreen for AddAB inhibitors: absorbance-based bacterial cell-based high throughput dose response assay for inhibitors of bacterial viability. [Related pubchem assays (depositor defined):AID435030, AID449728, AID449731, AID488942, AID488955, AID488956]; assay type: functional
# [15] = target: ATP-dependent molecular chaperone HSP82 (Candida albicans (strain WO-1) (Yeast), UniProt C4YTQ8); assay: loss of DOC-induced GRE-beta-galactosidase reporter signal, dose response, Hsp90 inhibitor project, S. cerevisiae, luminescence (AID 2400); assay type: functional, cell-based;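 note: beta-galactosidase luminescence from glucocorticoid response element reporter as proxy for Hsp90 function; inhibitor potency where signal loss means Hsp90 inhibition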
# [16] = target: Serine/threonine-protein phosphatase (Homo sapiens, UniProt Q9BPW0); assay: PP5 phosphatase inhibitors, dose response, biochemical, fluorescence (AID 2395)
# Sequence of Serine/threonine-protein phosphatase (Q9BPW0 whole entry): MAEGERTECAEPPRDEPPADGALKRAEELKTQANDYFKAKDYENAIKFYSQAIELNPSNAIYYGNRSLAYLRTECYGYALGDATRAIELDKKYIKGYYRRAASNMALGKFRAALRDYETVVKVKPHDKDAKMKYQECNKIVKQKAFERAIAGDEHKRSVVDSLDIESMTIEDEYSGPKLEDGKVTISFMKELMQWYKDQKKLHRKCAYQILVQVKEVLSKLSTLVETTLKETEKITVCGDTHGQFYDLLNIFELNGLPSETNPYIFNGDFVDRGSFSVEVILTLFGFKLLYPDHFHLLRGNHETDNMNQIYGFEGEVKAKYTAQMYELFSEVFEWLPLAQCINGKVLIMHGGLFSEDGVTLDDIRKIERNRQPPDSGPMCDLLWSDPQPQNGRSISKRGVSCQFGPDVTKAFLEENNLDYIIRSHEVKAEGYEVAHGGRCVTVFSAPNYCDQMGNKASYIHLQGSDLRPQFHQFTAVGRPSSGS
# Sequence of Mu-type opioid receptor (P35372 whole entry): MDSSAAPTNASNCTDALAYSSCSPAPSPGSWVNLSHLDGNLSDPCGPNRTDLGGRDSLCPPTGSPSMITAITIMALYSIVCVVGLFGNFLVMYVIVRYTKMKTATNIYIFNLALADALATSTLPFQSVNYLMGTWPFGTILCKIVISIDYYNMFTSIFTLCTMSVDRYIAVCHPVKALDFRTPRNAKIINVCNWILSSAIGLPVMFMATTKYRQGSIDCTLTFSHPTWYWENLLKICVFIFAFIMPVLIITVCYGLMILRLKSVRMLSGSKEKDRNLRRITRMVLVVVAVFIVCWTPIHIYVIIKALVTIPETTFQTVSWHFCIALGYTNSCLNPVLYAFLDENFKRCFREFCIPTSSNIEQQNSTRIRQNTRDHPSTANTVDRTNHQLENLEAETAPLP
# Sequence of Sphingosine 1-phosphate receptor 1 (P21453 whole entry): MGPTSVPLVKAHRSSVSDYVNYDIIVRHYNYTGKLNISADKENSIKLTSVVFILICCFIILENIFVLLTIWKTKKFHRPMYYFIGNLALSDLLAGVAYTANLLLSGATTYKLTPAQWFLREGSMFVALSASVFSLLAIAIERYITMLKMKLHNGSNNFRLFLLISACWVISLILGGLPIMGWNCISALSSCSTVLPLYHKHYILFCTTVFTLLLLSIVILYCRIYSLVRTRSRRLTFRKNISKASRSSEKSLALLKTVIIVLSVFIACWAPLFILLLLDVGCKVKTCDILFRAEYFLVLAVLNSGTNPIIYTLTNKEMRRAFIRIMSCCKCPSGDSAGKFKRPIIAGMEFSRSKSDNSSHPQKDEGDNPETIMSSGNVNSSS
# Sequence of Kappa-type opioid receptor (P41145 whole entry): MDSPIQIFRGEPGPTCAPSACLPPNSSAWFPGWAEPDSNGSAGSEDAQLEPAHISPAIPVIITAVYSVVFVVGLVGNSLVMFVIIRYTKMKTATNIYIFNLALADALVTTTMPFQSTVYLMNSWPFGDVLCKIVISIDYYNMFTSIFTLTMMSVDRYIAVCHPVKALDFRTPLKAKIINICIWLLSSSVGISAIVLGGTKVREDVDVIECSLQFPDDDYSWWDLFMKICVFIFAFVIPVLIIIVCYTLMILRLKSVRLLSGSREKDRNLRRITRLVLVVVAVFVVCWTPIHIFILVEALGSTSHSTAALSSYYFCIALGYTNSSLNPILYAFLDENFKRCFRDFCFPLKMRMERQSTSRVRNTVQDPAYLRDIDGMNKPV
# Sequence of G-protein coupled receptor 55 (Q9Y2T6 whole entry): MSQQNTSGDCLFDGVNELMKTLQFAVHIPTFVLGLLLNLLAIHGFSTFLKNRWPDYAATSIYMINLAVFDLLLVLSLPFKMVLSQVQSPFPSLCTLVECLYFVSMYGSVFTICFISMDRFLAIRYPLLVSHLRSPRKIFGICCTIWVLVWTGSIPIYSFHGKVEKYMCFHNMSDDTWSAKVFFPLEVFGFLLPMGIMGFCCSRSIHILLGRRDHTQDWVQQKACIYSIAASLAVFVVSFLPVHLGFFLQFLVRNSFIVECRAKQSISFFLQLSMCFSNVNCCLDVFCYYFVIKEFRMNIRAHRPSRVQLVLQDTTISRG
# Sequence of Delta-type opioid receptor (P41143 whole entry): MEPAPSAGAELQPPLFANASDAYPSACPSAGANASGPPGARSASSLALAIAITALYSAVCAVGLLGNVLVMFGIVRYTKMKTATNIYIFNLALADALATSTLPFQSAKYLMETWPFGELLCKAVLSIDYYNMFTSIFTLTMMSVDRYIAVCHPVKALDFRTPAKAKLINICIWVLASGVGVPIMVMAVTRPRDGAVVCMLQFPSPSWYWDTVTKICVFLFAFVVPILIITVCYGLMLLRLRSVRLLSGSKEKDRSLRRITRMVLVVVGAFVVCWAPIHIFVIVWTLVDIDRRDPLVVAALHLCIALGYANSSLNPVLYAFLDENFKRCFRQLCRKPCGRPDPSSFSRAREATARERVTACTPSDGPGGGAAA
# Sequence of ATP-dependent molecular chaperone HSP82 (C4YTQ8 whole entry): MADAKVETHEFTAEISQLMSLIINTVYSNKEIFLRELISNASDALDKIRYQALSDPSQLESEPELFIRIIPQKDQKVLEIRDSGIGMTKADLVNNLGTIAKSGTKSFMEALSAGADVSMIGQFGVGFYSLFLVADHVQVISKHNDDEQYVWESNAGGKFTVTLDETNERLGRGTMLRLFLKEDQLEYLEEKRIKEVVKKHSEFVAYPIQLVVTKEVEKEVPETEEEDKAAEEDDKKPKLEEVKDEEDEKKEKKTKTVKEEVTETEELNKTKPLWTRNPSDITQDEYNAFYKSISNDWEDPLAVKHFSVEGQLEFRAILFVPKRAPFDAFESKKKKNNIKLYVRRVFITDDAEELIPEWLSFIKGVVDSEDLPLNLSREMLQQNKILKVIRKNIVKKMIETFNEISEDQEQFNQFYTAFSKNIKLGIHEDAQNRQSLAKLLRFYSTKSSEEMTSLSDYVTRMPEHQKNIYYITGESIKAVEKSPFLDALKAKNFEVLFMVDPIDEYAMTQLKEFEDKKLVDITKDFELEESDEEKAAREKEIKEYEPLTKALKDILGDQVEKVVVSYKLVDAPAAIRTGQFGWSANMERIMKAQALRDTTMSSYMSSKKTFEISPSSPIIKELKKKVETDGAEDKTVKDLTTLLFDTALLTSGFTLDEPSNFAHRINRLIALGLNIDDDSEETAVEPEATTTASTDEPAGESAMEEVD
compound,measurement,setting,value
COc1cc(NC(=O)Cn2ncc(Cl)c(Cl)c2=O)c(C)cc1[N+](=O)[O-],EC50,[1],> 32 µM (inactive)
same,EC50,[2],> 32 µM (inactive)
same,IC50,[3],3.52 µM (active)
same,IC50,[4],12.9 µM (active)
same,EC50,[5],3.17 µM (active)
same,IC50,[6],6.74 µM (not active)
same,IC50,[7],> 49.8 µM (not active)
same,EC50,[8],8.7 µM (active)
same,AC50,[9],5.78 µM (active)
same,AC50,[10],9.1 µM (active)
same,AC50,[11],23.2 µM (active)
Cc1ccc(C)c(S(=O)(=O)N2CCN(Cc3ccc(O)c4ncccc34)CC2)c1,EC50,[12],1.14 µM (active)
same,EC50,[13],> 350 µM (not active)
same,IC50,[14],> 119 µM (inactive)
same,EC50,[15],> 160 µM (inactive)
Oc1ccc(/C=N\Nc2cc(N3CCOCC3)nc(N3CCOCC3)n2)c(O)c1,IC50,[16],5.72 µM (active)
